In patent publication US8022103B2, “Ester prodrugs of prostratin and related phorbol compounds” (Salvia Sciences, Inc., priority 2005, dated 2011):
≈ marks a conversion by molar mass, not a printed value. Where two headings read alike, the source gives them in different places.

Key:
HIV-1Ba-L = assay: PBMC antiviral assay, HIV-1Ba-L; assay type: cell-based; conditions: human PBMCs
Description: (§1) Compounds SA-101A and SA-101B were tested for antiviral activity against HIV-1 in peripheral blood mononuclear cells (PBMC) acutely infected with the HIV-1 isolates. PBMCs were derived from normal HIV-1 negative donors, and cultured under conditions which promote cell survival and HIV replication. Fresh human blood was obtained commercially from Biological Specialty Corporation (Colmar, Pa.). The low passage clinical isolates HIV-1Ba-L, HIVIIIB, and SIVmac251 were from the NIAID AIDS Research and Reference Reagent Program. Immediately before use, pre-titered aliquot of the viruses were removed from storage in a freezer (−80° C.) and thawed rapidly to room temperature in a biological safety cabinet. Phytohemagglutinin (PHA-P) was obtained from Sigma (St. Louis, Mo.) and recombinant IL-2 was obtained from R&D Systems Inc. (Minneapolis, Minn.). Antiviral activity was tested from a high-test concentration of 100 μM or 100 μg/ml with nine ½-log serial dilutions of the compound to derive applicable IC50 (concentration inhibition virus replication by 50%), IC90 (concentration inhibition virus replication by 90%), TC50 (concentration decreasing cell viability by 50%) and TI (therapeutic index: TC50/IC50) values.
Preparation of PMBC. Fresh Human PBMCs, Seronegative for HIV and HBV, were isolated from screened donors (Interstate Blood Bank, Inc. Memphis, Tenn.). Cells were pelleted/washed 2-3 times by low speed centrifugation and resuspensded in PBS to remove contaminating platelets. The leukophoresed blood was then diluted 1:1 with Dulbecco's Phosphate Buffered Saline (DPBS) and layered over 14 mL of Lymphocyte Separation Medium (LSM; Cellgro® by Mediatech, Inc.; density 1.078+/−0.002 g/ml; Cat. # 85-072-CL) in a 50 mL centrifuge tube and then centrifuged for 30 minutes at 600×g. Banded PBMCs were gently aspirated from the resulting interface and subsequently washed 2× with PBS by low speed centrifugation. After the final wash, cells were enumerated by trypan blue exclusion and re-suspended at 1×10^7 cells/mL in RPMI 1640 supplemented with 15% Fetal Bovine Serum (FBS), and 2 mM L-glutamine, 4 μg/mL Phytohemagglutinin (PHA-P, Sigma). The cells were allowed to incubate for 48-72 hours at 37° C. After incubation, PBMCs were centrifuged and re-suspended in RPMI 1640 with 15% FBS, 2 mM L-glutamine, 100 U/mL penicillin, 100 μg/mL streptomycin, 10 μg/mL gentamycin, and 20 U/mL recombinant human IL-2 (R&D Systems, Inc). […]
(§2) PMBC assay. […] Pooling (mixing) of mononuclear cells from more than one donor is used to minimize the variability observed between individual donors, which results from quantitative and qualitative differences in HIV infection and overall response to the PHA and IL-2 of primary lymphocyte populations. […]

[1] = system: HIV-1 isolates Ba-L and IIIB and the SIV isolate mac251; assay: PBMC-based assay, summary over all three isolates; assay type: cell-based; conditions: read-out: IC50 values against all three isolates
Description: as §1, with “Antiviral activity was tested from a high-test concentration of 100 μM or 100 μg/ml with nine ½-log serial dilutions of the compound to derive applicable IC50 (concentration inhibition virus replication by 50%), IC90 (concentration inhibition virus replication by 90%), TC50 (concentration decreasing cell viability by 50%) and TI (therapeutic index: TC50/IC50) values.” left out
as §2

Row | SMILES | IC50 (HIV-1Ba-L; Human immunodeficiency virus 1, PBMC, read-out: IC50) [µg/mL] | IC90 (HIV-1Ba-L; Human immunodeficiency virus 1, PBMC, read-out: IC90) [µg/mL] | IC50 [1] [µg/mL] | IC50 (HIV-1Ba-L; 40% Human AB serum) [µg/mL] | IC90 (HIV-1Ba-L; 40% Human AB serum) [µg/mL]
1 | CC(=O)O[C@@]12C[C@@H](C)[C@@]3(O)[C@@H](C=C(CO)C[C@]4(O)C(=O)C(C)=C[C@@H]34)[C@@H]1C2(C)C [SA-101A, 12-deoxyphorbol 13-acetate] | 0.05 (≈ 0.128 µM) | 0.39 (≈ 0.999 µM) | 0.05 to 0.39 (≈ 0.128 to 0.999 µM) |  | 
2 | CC(=O)OC12CC(C)C3(O)C(C=C(COC(=O)CCC(=O)O)CC4(O)C(=O)C(C)=CC43)C1C2(C)C (centres unmarked) [SA-101B, Prostratin Succinate] |  |  |  | 0.0007 | >1.00
